Source: BigSolDB 2.1

CCOC(=O)[C@@H](N)CCc1ccccc1.Cl
solubility (mole fraction)
Conditions	283.15 K	288.15 K	293.15 K	298.15 K	303.15 K	313.15 K	323.15 K
in 1,4-dioxane	–	0.00221	0.00266	–	0.00381	0.00845	0.0142
in 2-butanone	0.00022	–	0.00031	–	0.0004	0.00073	0.0013
in acetone	0.00068	–	0.00117	–	0.00182	0.00297	0.00505
in dichloromethane	0.0172	0.0233	0.0303	0.0386	0.0489	–	–
in ethanol	0.031	–	0.0393	–	0.0505	0.0666	0.0867
in isobutanol	0.0101	–	0.014	–	0.0203	0.0311	0.0472
in isopropanol	0.00726	–	0.0096	–	0.0135	0.0192	0.0286
in methyl acetate	4e-05	–	5e-05	–	0.00012	0.00024	0.00034
in n-butanol	0.0128	–	0.0163	–	0.022	0.0253	0.0277
in n-pentanol	0.0161	–	0.0215	–	0.0294	0.0427	0.0595
in n-propanol	0.019	–	0.0262	–	0.0353	0.0487	0.0679
in sec-butanol	0.00416	–	0.00614	–	0.00846	0.013	0.0257
